Test results as given in the supplement of paper PMC5908809.

Key:
YT (IL-2 2.5 ng/mL) [1] = experiment: drug sensitivity score (DSS) (DSS units); higher = more sensitive; extreme values may be limits of the assay; conditions: 72 h
[2] = system: normal primary NK cells, pool 1 (3 donors) (IL-2 2.5 ng/mL); experiment: as above; conditions: 72 h
DERL-7 (IL-2 2.5 ng/mL) [3] = experiment: as above; conditions: 72 h
[4] = system: normal primary NK cells, pool 3 (3 donors) (IL-2 2.5 ng/mL); experiment: as above; conditions: 72 h
IMC-1 (IL-2 20 ng/mL) [5] = experiment: as above; conditions: 72 h
[6] = system: normal primary NK cells, pool 2 (3 donors) (IL-2 2.5 ng/mL); experiment: as above; conditions: 72 h
KAI3 (IL-2 2.5 ng/mL) [7] = experiment: as above; conditions: 72 h
NK-92 (IL-2 2.5 ng/mL) [8] = experiment: as above; conditions: 72 h
NKL (IL-2 2.5 ng/mL) [9] = experiment: as above; conditions: 72 h
[10] = system: normal primary NK cells, pool 1 (3 donors), resting (IL-2 0 ng/mL); experiment: as above; conditions: 72 h
SNK-6 (IL-2 2.5 ng/mL) [11] = experiment: as above; conditions: 72 h
KHYG-1 (IL-2 2.5 ng/mL) [12] = experiment: as above; conditions: 72 h
NK-YS (IL-2 2.5 ng/mL) [13] = experiment: as above; conditions: 72 h
YT (IL-2 2.5 ng/mL) [14] = experiment: percent inhibition of viability; higher = more inhibition; conditions: 72 h
[15] = system: normal primary NK cells, pool 1 (3 donors) (IL-2 2.5 ng/mL); experiment: as above; conditions: 72 h
DERL-7 (IL-2 2.5 ng/mL) [16] = experiment: as above; conditions: 72 h
[17] = system: normal primary NK cells, pool 3 (3 donors) (IL-2 2.5 ng/mL); experiment: as above; conditions: 72 h
IMC-1 (IL-2 20 ng/mL) [18] = experiment: as above; conditions: 72 h
[19] = system: normal primary NK cells, pool 2 (3 donors) (IL-2 2.5 ng/mL); experiment: as above; conditions: 72 h
KAI3 (IL-2 2.5 ng/mL) [20] = experiment: as above; conditions: 72 h
NK-92 (IL-2 2.5 ng/mL) [21] = experiment: as above; conditions: 72 h
NKL (IL-2 2.5 ng/mL) [22] = experiment: as above; conditions: 72 h
[23] = system: normal primary NK cells, pool 1 (3 donors), resting (IL-2 0 ng/mL); experiment: as above; conditions: 72 h
SNK-6 (IL-2 2.5 ng/mL) [24] = experiment: as above; conditions: 72 h
KHYG-1 (IL-2 2.5 ng/mL) [25] = experiment: as above; conditions: 72 h
NK-YS (IL-2 2.5 ng/mL) [26] = experiment: as above; conditions: 72 h
[27] = system: normal NK cells expanded with K562-aAPC; experiment: as above; conditions: 72 h, IL-2 2.5 ng/mL
Description: (§1)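 Drug sensitivity and resistance testing on K562-aAPC-expanded normal NK cells: 5 concentrations (10-fold steps over a 10,000-fold range), 72 h at 37 °C, viability by CellTiter-Glo normalised to DMSO and benzethonium chloride controls; DSS from the fitted curve.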

[28] = system: normal NK cells expanded with K562-aAPC; experiment: drug sensitivity score (DSS) (DSS units); higher = more sensitive; extreme values may be limits of the assay; conditions: 72 h; IL-2 2.5 ng/mL
Description: as §1

Work on `Cn1c(=O)n(-c2ccc(C(C)(C)C#N)cc2)c2c3cc(-c4cnc5ccccc5c4)ccc3ncc21` [Dactolisib] (max concentration tested 1000 nM) yielded a drug sensitivity score (YT (IL-2 2.5 ng/mL) [1]) of 12.7, a drug sensitivity score [2] of 10.6 and a drug sensitivity score (DERL-7 (IL-2 2.5 ng/mL) [3]) of 19.6. For the same molecule, the drug sensitivity score [4] was 4.8, the drug sensitivity score (IMC-1 (IL-2 20 ng/mL) [5]) was 4.51 and the drug sensitivity score [6] was 9.12. It also gave a drug sensitivity score (KAI3 (IL-2 2.5 ng/mL) [7]) of 15.9, a drug sensitivity score (NK-92 (IL-2 2.5 ng/mL) [8]) of 15.2 and a drug sensitivity score (NKL (IL-2 2.5 ng/mL) [9]) of 18.6. The drug sensitivity score [10] was 11.8, the drug sensitivity score (SNK-6 (IL-2 2.5 ng/mL) [11]) was 8.78 and the drug sensitivity score (KHYG-1 (IL-2 2.5 ng/mL) [12]) was 14.2. For the same molecule, the drug sensitivity score (NK-YS (IL-2 2.5 ng/mL) [13]) was 14.8, the “percent inhibition of viability” value (YT (IL-2 2.5 ng/mL) [14]; 0.1 nM) was -3.01% and the “percent inhibition of viability” value (YT (IL-2 2.5 ng/mL) [14]; 1 nM) was -5.11%. For the same molecule, the “percent inhibition of viability” value (YT (IL-2 2.5 ng/mL) [14]; 10 nM) was 15.7%, the “percent inhibition of viability” value (YT (IL-2 2.5 ng/mL) [14]; 100 nM) was 57.6% and the “percent inhibition of viability” value (YT (IL-2 2.5 ng/mL) [14]; 1000 nM) was 80.4%. The “percent inhibition of viability” value ([15]; 0.1 nM) was -5.56%, the “percent inhibition of viability” value ([15]; 1 nM) was 16% and the “percent inhibition of viability” value ([15]; 10 nM) was 21.4%. The “percent inhibition of viability” value ([15]; 100 nM) was 45%, the “percent inhibition of viability” value ([15]; 1000 nM) was 38.5% and the “percent inhibition of viability” value (DERL-7 (IL-2 2.5 ng/mL) [16]; 0.1 nM) was 0.52%. For the same molecule, the “percent inhibition of viability” value (DERL-7 (IL-2 2.5 ng/mL) [16]; 1 nM) was 16%, the “percent inhibition of viability” value (DERL-7 (IL-2 2.5 ng/mL) [16]; 10 nM) was 38.7% and the “percent inhibition of viability” value (DERL-7 (IL-2 2.5 ng/mL) [16]; 100 nM) was 79.4%. For the same molecule, the “percent inhibition of viability” value (DERL-7 (IL-2 2.5 ng/mL) [16]; 1000 nM) was 84.9%, the “percent inhibition of viability” value ([17]; 0.1 nM) was -3.41% and the “percent inhibition of viability” value ([17]; 1 nM) was 6.19%. The “percent inhibition of viability” value ([17]; 10 nM) was 15.4%, the “percent inhibition of viability” value ([17]; 100 nM) was 16.5% and the “percent inhibition of viability” value ([17]; 1000 nM) was 43.5%. The “percent inhibition of viability” value (IMC-1 (IL-2 20 ng/mL) [18]; 0.1 nM) was -8.09%, the “percent inhibition of viability” value (IMC-1 (IL-2 20 ng/mL) [18]; 1 nM) was 0.4% and the “percent inhibition of viability” value (IMC-1 (IL-2 20 ng/mL) [18]; 10 nM) was -15.1%. For the same molecule, the “percent inhibition of viability” value (IMC-1 (IL-2 20 ng/mL) [18]; 100 nM) was 8.63%, the “percent inhibition of viability” value (IMC-1 (IL-2 20 ng/mL) [18]; 1000 nM) was 56.9% and the “percent inhibition of viability” value ([19]; 0.1 nM) was -5.46%. The “percent inhibition of viability” value ([19]; 1 nM) was 9.09%, the “percent inhibition of viability” value ([19]; 10 nM) was 17.1% and the “percent inhibition of viability” value ([19]; 100 nM) was 37.6%. The “percent inhibition of viability” value ([19]; 1000 nM) was 57.4%, the “percent inhibition of viability” value (KAI3 (IL-2 2.5 ng/mL) [20]; 0.1 nM) was -4.23% and the “percent inhibition of viability” value (KAI3 (IL-2 2.5 ng/mL) [20]; 1 nM) was -6.61%. For the same molecule, the “percent inhibition of viability” value (KAI3 (IL-2 2.5 ng/mL) [20]; 10 nM) was 24.4%, the “percent inhibition of viability” value (KAI3 (IL-2 2.5 ng/mL) [20]; 100 nM) was 68.8% and the “percent inhibition of viability” value (KAI3 (IL-2 2.5 ng/mL) [20]; 1000 nM) was 75.8%. For the same molecule, the “percent inhibition of viability” value (NK-92 (IL-2 2.5 ng/mL) [21]; 0.1 nM) was -5.17%, the “percent inhibition of viability” value (NK-92 (IL-2 2.5 ng/mL) [21]; 1 nM) was -0.09% and the “percent inhibition of viability” value (NK-92 (IL-2 2.5 ng/mL) [21]; 10 nM) was 27.1%. For the same molecule, the “percent inhibition of viability” value (NK-92 (IL-2 2.5 ng/mL) [21]; 100 nM) was 63.9%, the “percent inhibition of viability” value (NK-92 (IL-2 2.5 ng/mL) [21]; 1000 nM) was 70.8% and the “percent inhibition of viability” value (NKL (IL-2 2.5 ng/mL) [22]; 0.1 nM) was -13.1%. For the same molecule, the “percent inhibition of viability” value (NKL (IL-2 2.5 ng/mL) [22]; 1 nM) was -9.35%, the “percent inhibition of viability” value (NKL (IL-2 2.5 ng/mL) [22]; 10 nM) was 36.5% and the “percent inhibition of viability” value (NKL (IL-2 2.5 ng/mL) [22]; 100 nM) was 69.7%. The “percent inhibition of viability” value (NKL (IL-2 2.5 ng/mL) [22]; 1000 nM) was 76.1%, the “percent inhibition of viability” value ([23]; 0.1 nM) was -1.73% and the “percent inhibition of viability” value ([23]; 1 nM) was 24%. The “percent inhibition of viability” value ([23]; 10 nM) was 24.7%, the “percent inhibition of viability” value ([23]; 100 nM) was 38.7% and the “percent inhibition of viability” value ([23]; 1000 nM) was 40.6%. For the same molecule, the “percent inhibition of viability” value (SNK-6 (IL-2 2.5 ng/mL) [24]; 0.1 nM) was -7.98%, the “percent inhibition of viability” value (SNK-6 (IL-2 2.5 ng/mL) [24]; 1 nM) was -26.8% and the “percent inhibition of viability” value (SNK-6 (IL-2 2.5 ng/mL) [24]; 10 nM) was 2.13%. The “percent inhibition of viability” value (SNK-6 (IL-2 2.5 ng/mL) [24]; 100 nM) was 46.8%, the “percent inhibition of viability” value (SNK-6 (IL-2 2.5 ng/mL) [24]; 1000 nM) was 52.4% and the “percent inhibition of viability” value (KHYG-1 (IL-2 2.5 ng/mL) [25]; 0.1 nM) was -4.3%. The “percent inhibition of viability” value (KHYG-1 (IL-2 2.5 ng/mL) [25]; 1 nM) was -5.69%, the “percent inhibition of viability” value (KHYG-1 (IL-2 2.5 ng/mL) [25]; 10 nM) was 3.3% and the “percent inhibition of viability” value (KHYG-1 (IL-2 2.5 ng/mL) [25]; 100 nM) was 74.9%. For the same molecule, the “percent inhibition of viability” value (KHYG-1 (IL-2 2.5 ng/mL) [25]; 1000 nM) was 90.8%, the “percent inhibition of viability” value (NK-YS (IL-2 2.5 ng/mL) [26]; 0.1 nM) was 0.2% and the “percent inhibition of viability” value (NK-YS (IL-2 2.5 ng/mL) [26]; 1 nM) was -0.12%. For the same molecule, the “percent inhibition of viability” value (NK-YS (IL-2 2.5 ng/mL) [26]; 10 nM) was 24.7%, the “percent inhibition of viability” value (NK-YS (IL-2 2.5 ng/mL) [26]; 100 nM) was 63.3% and the “percent inhibition of viability” value (NK-YS (IL-2 2.5 ng/mL) [26]; 1000 nM) was 82.3%. For the same molecule, the “percent inhibition of viability” value ([27]; 0.1 nM) was -4.3%, the “percent inhibition of viability” value ([27]; 1 nM) was -1.75% and the “percent inhibition of viability” value ([27]; 10 nM) was 17.1%. For the same molecule, the “percent inhibition of viability” value ([27]; 100 nM) was 38.2%, the “percent inhibition of viability” value ([27]; 1000 nM) was 57.6% and the drug sensitivity score [28] was 8.96.
